“Also recorded” adds a separate entry of the source.

Data set [1] deals with IFN and IFN-stimulated gene (ISG) expression. As to the kind of experiment: IFNα1 and MX1 mRNA by Real-time PCR in primary mouse alveolar epithelial cells. Type of data set: cell-based.
In a further data set the test system is A549 cells. Conditions: all the concentrations tested (30-80,000 nM), MTT assay.
The test system of data set [2] is Axin1. It counts as in vivo, mouse. Conditions: oral administration of RN-1 for 24 hours, 50 mg/kg.
In data set [3] the test system is H1N1 influenza A/PR/8/34 virus. As to the kind of experiment: Lethal influenza virus challenge in mice (lung virus titer, survival). It counts as in vivo, mouse. Conditions: for survival rate after lethal virus challenge: mice, 1,000 pfu, RN-1 50 mg/kg orally daily, -1 to 2 or 4 dpi.
Procedure: Mice were challenged intranasally with a lethal dose (1,000 pfu) of H1N1 influenza A/PR/8/34 virus. […] Control animals received vehicle alone. […] (C) Virus titer in the homogenized infected lungs at 2 dpi was measured by TCID50 assay in MDCK cells and normalized to total protein amount. […] Data shown are means±s.e.m. and tested for statistical significance by Student's t-test. (D) Survival rate. […] Mantel-Cox χ2 test on Kaplan-Meier survival data was used to compare the survival rate between groups.
Male C57BL/6N mice (6-8 week old) were challenged intranasally with a lethal dose (1,000 pfu) of influenza virus A/PR/8/34 H1N1 under anesthesia. […] Control animals were given vehicle alone in the same formulation. All animals were observed daily for body weight loss and clinical signs of disease such as ruffled fur, inactivity and difficulty in breathing until 21 days post infection.
MDCK cells in 96-well plates were infected with serial dilutions (10^−1 to 10^−7) of virus samples in serum-free complete EMEM containing 1 μg/ml TPCK-treated trypsin for 1 hour. The cells were re-fed with the same medium for 4 days. TCID50 values (median tissue culture infective dose) were calculated by the method of Reed and Muench.
The results were analyzed by one-way ANOVA followed with posthoc Tukey's test for multiple comparisons of control and treatment groups, or Student's t-test using GraphPad Prism (version 6). Survival rates between groups were analyzed by Mantel-Cox χ2 test on Kaplan-Meier probability estimates using GraphPad Prism. All results were reported as mean±s.e.m.
The test system of data set [4] is H1N1 influenza A/PR/8/34 virus. Type of data set: cell-based.
In data set [5] the test system is nonO/p54(nrb), SFPQ, and hnRNP M. Type of data set: cell-based, human. The note with it: A549 cells, 20 μM RN-1 24 hours pretreatment, MOI=2.
The test system of data set [6] is H1N1 influenza A/PR/8/34 virus. As to the kind of experiment: organism not typed. Type of data set: cell-based.
In another data set the test system is herpes simplex virus. The note with it: previously reported; cited from earlier work.
The test system of data set [7] is Axin1. Nature of the data set: Axin1 stabilization in A549 cells (immunostaining, Western blot). Type of data set: cell-based, human.
The subject of the next data set is ISRE activity. Nature of the data set: ISRE_Luc dual-luciferase assay in OE-Axin1 HEK293 cells pretreated with inhibitors. Type of data set: cell-based, human. The note with it: 10 μM inhibitor, OE-Axin1, MOI=2 for 8 hours.
The test system of data set [8] is H1N1 influenza A/PR/8/34 virus. As to the kind of experiment: Viral gene mRNA in OE-Axin1 HEK293 cells pretreated with inhibitors. It counts as cell-based.
Data set [9] deals with Axin1-stimulated IFN response. As to the kind of experiment: Axin1-stimulated IFN and ISG mRNA in OE-Axin1 HEK293 cells pretreated with inhibitors. It counts as cell-based, human. The note with it: OE-Axin1, MOI=2.
The test system of data set [10] is H1N1 influenza A/PR/8/34 virus. It counts as cell-based. Conditions: E10 cells, 250 ng/ml rhWnt3a or 50% Wnt3a_CM 24 hours pretreatment, MOI=2 for 18 hours.
The test system of data set [11] is influenza virus A/Puerto Rico/8/1934 H1N1. It counts as in vivo, mouse. The note with it: mice, 250 pfu, 50 μl 10× Wnt3a_CM intranasally 4 hours before and 2 days post infection, lungs day 5.
[12] abbreviates: primary mouse alveolar epithelial cells during virus infection, 20 μM RN-1, 12 hpi.
[13] abbreviates: 10 μM inhibitor 6 hours pretreatment.

For `Oc1nc(-c2ccc(C(F)(F)F)cc2)nc2c1CSCC2` [RN-1, 3,5,7,8-Tetrahydro-2-[4-(trifluoromethyl)phenyl]-4H-thiopyrano[4,3-d]pyrimidin-4-one], in data set [1] (setting [12]), the “mRNA expression of IFNα1” value is “increased the mRNA expression” and the “mRNA expression of the ISG MX1” value is given as “increased the mRNA expression”. The “baseline IFN gene expression” value in [1] (uninfected cells) is “had no effects”. The cell viability result in the data set with A549 cells was “did not affect cell viability”. Moreover, the “Axin1 protein in the mouse lung” value in the data set on Axin1 [2] is “successfully stabilized Axin1”. The “survival rate after lethal virus challenge” value in [3] was “dramatically improved”. In data set [3] (listed as XAV939), the “survival rate after lethal virus challenge” value is listed as “protected animals from lethal influenza virus challenge”. The “influenza virus replication in vivo (virus titer in infected lungs at 2 dpi)” value in data set [3] (mouse, in vivo, po) was “significantly attenuated”. In addition, in [4], the “virus replication (virus titer)” value is “notably inhibited; also recorded: significantly inhibited virus replication”. Moreover, the “degradation of nonO/p54(nrb), SFPQ and hnRNP M” value in [5] was “stimulated the degradation of all three proteins”. In addition, in data set [6], the “maximum inhibition of influenza virus replication” value is reported as “over 99%” and the “virus replication (virus titer in supernatants)” value is “significantly attenuated”. For the same molecule, in data set [6] (A549, 24 h, read-out: EC50 of attenuation of influenza virus replication (virus titers in culture media)), the EC50 was found to be 419 nM. The “herpes simplex virus replication” value in the data set with herpes simplex virus is on record as “inhibit herpes simplex virus replication”. The “Axin1 protein during influenza virus infection” value in the data set on Axin1 [7] is reported as “Axin1 was not degraded”.

`COc1cc2c(cc1OC)CN(C(=O)/C=C/c1c(-c3ccccc3)n(C)c3ncccc13)CC2` [SIS3]: in the data set on ISRE activity, the “Axin1-stimulated ISRE activity” value is recorded as “the same inhibitory effect”. In data set [8], the “effect on Axin1-mediated attenuation of influenza virus replication (viral gene mRNA)” value was “relived Axin1-mediated attenuation of influenza virus replication”. Also, in data set [9] (setting [13]), the “Axin1-stimulated IFN mRNA expression (IFNβ1, IFNα1, IFNα7, IFNλ1)” value was “the same inhibitory effect on Axin1-elevated anti-viral machinery except IFNβ1 synthesis (FIG. 7A) and MX1 expression (FIG. 7E); also recorded: only inhibited Axin1-induced expression of IFNα but not IFNβ1”; the “Axin1-stimulated ISGs expression (OAS1, MX1, IP10)” value was “the same inhibitory effect on Axin1-elevated anti-viral machinery except IFNβ1 synthesis (FIG. 7A) and MX1 expression (FIG. 7E)”. Further, the “Axin1-regulated Type I and Type III IFN synthesis” value in [9] (10 μM inhibitor) was “the same inhibitory effect in both scenarios”.

B1: Wnt3a: activator of Wnt/β-catenin signaling, given as rhWnt3a or Wnt3a_CM (protein, UniProt P56704 19-352, looked up)
Protein Wnt-3a: SYPIWWSLAVGPQYSSLGSQPILCASIPGLVPKQLRFCRNYVEIMPSVAEGIKIGIQECQHQFRGRRWNCTTVHDSLAIFGPVLDKATRESAFVHAIASAGVAFAVTRSCAEGTAAICGCSSRHQGSPGKGWKWGGCSEDIEFGGMVSREFADARENRPDARSAMNRHNNEAGRQAIASHMHLKCKCHGLSGSCEVKTCWWSQPDFRAIGDFLKDKYDSASEMVVEKHRESRGWVETLRPRYTYFKVPTERDLVYYEASPNFCEPNPETGSFGTRDRTCNVSSHGIDGCDLLCCGRGHNARAERRREKCRCVFHWCCYVSCQECTRVYDVHTCK
For B1, the “virus replication in vitro (viral gene mRNA)” value in [10] is “dramatically promotes virus replication”. Also, the “virus replication in vivo (viral gene mRNA in lungs)” value in [11] is “dramatically promotes virus replication”.
